Assay results: patent US11622937B2, “Polyphenolic polymer to make water-insoluble molecules become water-soluble” (priority 2015, dated 2023)
Where a name gives a salt, the structure may show the parent alone.

Columns and labels:
[1] = cited from earlier work
[2] = Comparative study of solubility profile in water (spectrophotometric absorption at 262); format: physicochemical; conditions: 200 ml DI water, filtered 0.45 micron
Method: A comparative study was conducted to observe the solubility profile in water. Materials: Ibuprofen was purchased from Spectrum (USP grade) USA. […] Spectrophotometer used in the study is from Beckman Coulter DU800. Sample preparation; 200 mg of Ibuprofen was weighed and ground in a […] -mortar and dissolved in 200 ml of DI water.

[3] = Solubility with Polyphenolic Polymer in water; conditions: molecule formulated with Polyphenolic Polymer
[4] = estimated; cited from earlier work

SMILES | Reported Solubility in water [1] | solubility [2] | Solubility with Polyphenolic Polymer in water (more than 99%) [3] | solubility in water [4]
CC(C)Cc1ccc(C(C)C(=O)O)cc1 (stereo not shown) [Ibuprofen] | Insoluble | less than 1% | – | –
CCCC1O[C@@H]2C[C@H]3[C@@H]4CCC5=CC(=O)C=C[C@]5(C)[C@H]4[C@@H](O)C[C@]3(C)[C@]2(C(=O)CO)O1 (stereo partly shown) [Budesonide, 98%, Budesonide] | Insoluble | – | Water Soluble | –
C[C@@H]1C[C@H]2[C@@H]3CCC4=CC(=O)C=C[C@]4(C)[C@@]3(F)[C@@H](O)C[C@]2(C)[C@@]1(O)C(=O)CO [Dexamethasone] | Insoluble | – | Water Soluble | –
Cc1ccc(-c2cc(C(F)(F)F)nn2-c2ccc(S(N)(=O)=O)cc2)cc1 [Celecoxib] | Insoluble | – | Water Soluble | –
CC(=O)Oc1ccccc1C(=O)O [Aspirin] | Insoluble | – | Water Soluble | –
CN1CCCC(n2nc(Cc3ccc(Cl)cc3)c3ccccc3c2=O)CC1 (stereo not shown) [Azelastine] | Insoluble | – | Water Soluble | –
Nc1cccc2c1C(=O)N(C1CCC(=O)NC1=O)C2=O (stereo not shown) [Pomalidomide] | Insoluble | – | Water Soluble | –
CN1C(C(=O)Nc2ccccn2)=C(O)c2ccccc2S1(=O)=O [Piroxicam (pain), Piroxicam] | Insoluble | – | Water Soluble | –
CCC(=O)O[C@]1(C(=O)SCF)[C@H](C)C[C@H]2[C@@H]3C[C@H](F)C4=CC(=O)C=C[C@]4(C)[C@@]3(F)[C@@H](O)C[C@@]21C [Fluticasone Propionate] | Insoluble | – | Water Soluble | –
O=c1c(O)c(-c2ccc(O)cc2)oc2cc(O)cc(O)c12 [Kaempferol] | Insoluble | – | Water Soluble | –
CC(=O)O[C@@]12CO[C@@H]1C[C@H](O)[C@@]1(C)C(=O)[C@H](O)C3=C(C)[C@@H](OC(=O)[C@H](O)[C@@H](NC(=O)OC(C)(C)C)c4ccccc4)C[C@@](O)([C@@H](OC(=O)c4ccccc4)[C@H]21)C3(C)C [Docetaxel] | Insoluble | – | Water Soluble | –
C#Cc1cccc(Nc2ncnc3cc(OCCOC)c(OCCOC)cc23)c1 [Erlotinib Monohydrochloride] | Insoluble | – | Water Soluble | –
CN(Cc1cnc2nc(N)nc(N)c2n1)c1ccc(C(=O)N[C@@H](CCC(=O)O)C(=O)O)cc1 [Methotrexate] | Insoluble | – | Water Soluble | –
CN1C[C@H](C(=O)N[C@]2(C)O[C@@]3(O)[C@@H]4CCCN4C(=O)[C@H](Cc4ccccc4)N3C2=O)C[C@@H]2c3cccc4[nH]cc(c34)C[C@H]21 [Dihydroergotamine Mesylate] | Insoluble | – | Water Soluble | –
O=C1CCc2cc(OCCCCc3nnnn3C3CCCCC3)ccc2N1 [Cilostazol] | Insoluble | – | Water Soluble | –
COc1cccc2c1C(=O)c1c(O)c3c(c(O)c1C2=O)C[C@@](O)(C(=O)CO)C[C@@H]3O[C@H]1C[C@H](N)[C@H](O)[C@H](C)O1 [Doxorubicin] | Insoluble | – | Water Soluble | –
Nc1cccc2c1CN(C1CCC(=O)NC1=O)C2=O (stereo not shown) [Lenalidomide] | Insoluble | – | Water Soluble | –
C=C(c1ccc(C(=O)O)cc1)c1cc2c(cc1C)C(C)(C)CCC2(C)C [Bexarotene, Free Acid (4), Bexarotene] | Insoluble | – | – | 10 to 50 µM
CCC(C)n1ncn(-c2ccc(N3CCN(c4ccc(OCC5COC(Cn6cncn6)(c6ccc(Cl)cc6Cl)O5)cc4)CC3)cc2)c1=O (stereo not shown) [Itraconazole] | Insoluble | – | Water Soluble | –
CC[C@@]1(O)C(=O)OCc2c1cc1n(c2=O)Cc2cc3ccccc3nc2-1 [Camptothecin] | Insoluble | – | Water Soluble | –
CC[C@H]1OC(=O)[C@H](C)[C@@H](O[C@H]2C[C@@](C)(OC)[C@@H](O)[C@H](C)O2)[C@H](C)[C@@H](O[C@@H]2O[C@H](C)C[C@H](N(C)C)[C@H]2O)[C@](C)(O)C[C@@H](C)CN(C)[C@H](C)[C@@H](O)[C@]1(C)O [Azithromycin-dihydrate] | Insoluble | – | Water Soluble | –
CC[C@H]1OC(=O)[C@H](C)[C@@H](O[C@H]2C[C@@](C)(OC)[C@@H](O)[C@H](C)O2)[C@H](C)[C@@H](O[C@@H]2O[C@H](C)C[C@H](N(C)C)[C@H]2O)[C@](C)(OC)C[C@@H](C)C(=O)[C@H](C)[C@@H](O)[C@]1(C)O [Clarithromycin] | Insoluble | – | Water Soluble | –
CC12CCC(CC1=O)C2(C)C (stereo not shown) [Camphor] | Insoluble | – | Water Soluble | –
CO[C@H]1C[C@@H]2CC[C@@H](C)[C@@](O)(O2)C(=O)C(=O)N2CCCC[C@H]2C(=O)O[C@H]([C@H](C)C[C@@H]2CC[C@@H](O)[C@H](OC)C2)CC(=O)[C@H](C)/C=C(\C)[C@@H](O)[C@@H](OC)C(=O)[C@H](C)C[C@H](C)/C=C/C=C/C=C/1C [Rapamycin] | Insoluble | – | Water Soluble | –
CCCCCOC(=O)Nc1nc(=O)n([C@@H]2O[C@H](C)[C@@H](O)[C@H]2O)cc1F [Capecitabine] | Insoluble | – | Water Soluble | –
NC(=O)N1c2ccccc2C=Cc2ccccc21 [Carbamazepine] | Insoluble | – | Water Soluble | –
